Assay results: PMC10997755, “Discovery of a small-molecule inhibitor that traps Polθ on DNA and synergizes with PARP inhibitors” (Nature Communications, 2024)
pIC50: −log10 of the molar value. Several values for one entry are separate records, joined by “and”; a condition that tells them apart may be missing. Identical values can stand only once.

Assays:
Test in all cases: Clonogenic assay
Assay type in all cases: cell-based
[1] = test system: HCT116 BRCA2 -/- cells; conditions: for Average number of colonies counted / Normalized colonies (% normalized to control): per experiment
Summary of the method: (§1)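 Cells seeded at low density (300–1000 per well, by plate size and genotype), medium changed every 2 days, colonies grown 10–12 days. Fixed in water:ethanol:acetic acid, stained with 0.5% crystal violet, then counted; IC50 from ≥3 independent experiments, mean ± SEM.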

[2] = test system: MDA-MB-231 cells; conditions: for percent suvival: Fig. 2f
Summary of the method: as §1

[3] = test system: CAPAN-1 cells; conditions: for percent suvival: Capan-1 cells
Summary of the method: as §1

[4] = test system: PE01 ovarian cancer cells; conditions: clonogenic survival
Summary of the method: as §1

[5] = test system: HCT116 Parental cells; conditions: for Average number of colonies counted / Normalized colonies (% normalized to control): per experiment
Summary of the method: (§2)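 Colony formation by BRCA-deficient, PALB2-mutant and wild-type cells (300–1000 cells/well) and MEFs (300 cells/well) over 10–12 days, medium changed every 2 days. Colonies fixed, stained with 0.5% crystal violet and counted; IC50 from 3 or more independent experiments.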

[6] = test system: PALB2 complemented EUFA1341 cells; conditions: for Average (raw signal of wells) / Normalized (0 micro M = 100) / average - blank: per experiment
Summary of the method: as §2

[7] = test system: EUFA1341 PALB2 mut cells
Summary of the method: as §2

For `CN(C(=O)Oc1c(N2CCN(CCO)C2=O)cc(C(F)(F)F)cc1C(F)(F)F)c1ccc(F)cc1` [RTx-161], the pIC50 ([1]; Homo sapiens, HCT-116, HCT116 cells, label beside BRCA2-null curve, read-out: IC50 clonogenic survival) was ~6.00, the “Normalized colonies, pooled Average of 3 experiments” value (“Normalized colonies, pooled Average” for short) ([1]; RTX-161 0.5 micro M) was 92.0788% and the “Average number of colonies counted” value ([1]; RTX-161 0.5 micro M) was 70 and 37.3333 and 38. The “Normalized colonies (% normalized to control)” value ([1]; RTX-161 0.5 micro M) was 74.7331% and 113.131% and 88.3721%, the “Normalized colonies, pooled Average” value ([1]; RTX-161 1 micro M) was 62.4064% and the “Average number of colonies counted” value ([1]; RTX-161 1 micro M) was 46.6667 and 26.6667 and 24.3333. For the same compound, the “Normalized colonies (% normalized to control)” value ([1]; RTX-161 1 micro M) was 49.8221% and 80.8081% and 56.5891%, the “Normalized colonies, pooled Average” value ([1]; RTX-161 2 micro M) was 32.1189% and the “Normalized colonies (% normalized to control)” value ([1]; RTX-161 2 micro M) was 33.0961% and 35.3535% and 27.907%. The “Normalized colonies, pooled Average” value ([1]; RTX-161 4 micro M) was 16.8132%, the “Normalized colonies, pooled Average” value ([1]; RTX-161 8 micro M) was 8.53% and the “combination with Rucaparib” value ([1]; clonogenic survival) was “strong synergistic activity”. For the same compound, the “combination with Olaparib” value ([1]; clonogenic survival, Combenefit synergy) was “strong synergistic activity”, the “selective killing of BRCA2-null HCT116 cells” value ([1]; colony survival, versus BRCA2-WT) was “selective killing” and the percent suvival ([2]; Rtx-161 5 microM + Talazoparib 12.5 nano M, experiment block 1 (c0-c7)) was 68.1979%. For the same compound, the percent suvival ([2]; Rtx-161 5 microM + Talazoparib 12.5 nano M, experiment block 2 (c8-c15)) was 63.9241%, the percent suvival ([2]; Rtx-161 5 microM + Talazoparib 12.5 nano M, experiment block 3 (c16-c23)) was 59.2391% and the percent suvival ([2]; Rtx-161 5 microM + Talazoparib 25 nano M, experiment block 1 (c0-c7)) was 45.2297%. The percent suvival ([2]; Rtx-161 5 microM + Talazoparib 25 nano M, experiment block 2 (c8-c15)) was 50%, the percent suvival ([2]; Rtx-161 5 microM + Talazoparib 25 nano M, experiment block 3 (c16-c23)) was 34.2391% and the percent suvival ([2]; Rtx-161 5 microM + Talazoparib 50 nano M, experiment block 1 (c0-c7)) was 12.7208%. The percent suvival ([2]; Rtx-161 5 microM + Talazoparib 50 nano M, experiment block 2 (c8-c15)) was 18.9873%, the percent suvival ([2]; Rtx-161 5 microM + Talazoparib 50 nano M, experiment block 3 (c16-c23)) was 15.7609% and the percent suvival ([2]; Rtx-161 5 microM, Talazoparib 0 nano M, experiment block 1 (c0-c7)) was 93.6396%. For the same compound, the percent suvival ([2]; Rtx-161 5 microM, Talazoparib 0 nano M, experiment block 2 (c8-c15)) was 98.7342%, the percent suvival ([2]; Rtx-161 5 microM, Talazoparib 0 nano M, experiment block 3 (c16-c23)) was 88.587% and the “combination with Talazoparib” value ([2]; clonogenic survival, HR-proficient cells) was “modestly potentiated the effects of Talazoparib”. It also gave a percent suvival ([3]; RTX-161 2 micro M + ola 0.041 micro M, experiment block 1 (c0-c9)) of 16.0976%, a percent suvival ([3]; RTX-161 2 micro M + ola 0.041 micro M, experiment block 2 (c10-c19)) of 65.2438% and a percent suvival ([3]; RTX-161 2 micro M + ola 0.041 micro M, experiment block 3 (c20-c29)) of 82.5985%. It also gave a percent suvival ([3]; RTX-161 2 micro M + ola 0.123 micro M, experiment block 1 (c0-c9)) of 6.496%, a percent suvival ([3]; RTX-161 2 micro M + ola 0.123 micro M, experiment block 2 (c10-c19)) of 35.6906% and a percent suvival ([3]; RTX-161 2 micro M + ola 0.123 micro M, experiment block 3 (c20-c29)) of 71.0728%. The percent suvival ([3]; RTX-161 2 micro M + ola 0.37 micro M, experiment block 1 (c0-c9)) was 4.656%, the percent suvival ([3]; RTX-161 2 micro M + ola 0.37 micro M, experiment block 2 (c10-c19)) was 25.2846% and the percent suvival ([3]; RTX-161 2 micro M + ola 0.37 micro M, experiment block 3 (c20-c29)) was 54.8012%. For the same compound, the percent suvival ([3]; RTX-161 2 micro M + ola 1.11 micro M, experiment block 1 (c0-c9)) was 3.463%, the percent suvival ([3]; RTX-161 2 micro M + ola 1.11 micro M, experiment block 2 (c10-c19)) was 19.041% and the percent suvival ([3]; RTX-161 2 micro M + ola 1.11 micro M, experiment block 3 (c20-c29)) was 23.1621%. For the same compound, the percent suvival ([3]; RTX-161 2 micro M, ola 0.00 micro M, experiment block 1 (c0-c9)) was 102.855%, the percent suvival ([3]; RTX-161 2 micro M, ola 0.00 micro M, experiment block 2 (c10-c19)) was 79.1879% and the percent suvival ([3]; RTX-161 2 micro M, ola 0.00 micro M, experiment block 3 (c20-c29)) was 91.4122%. For the same compound, the percent suvival ([3]; RTX-161 6 micro M + ola 0.041 micro M, experiment block 1 (c0-c9)) was 15.5586%, the percent suvival ([3]; RTX-161 6 micro M + ola 0.041 micro M, experiment block 2 (c10-c19)) was 45.4723% and the percent suvival ([3]; RTX-161 6 micro M + ola 0.041 micro M, experiment block 3 (c20-c29)) was 68.5869%. The percent suvival ([3]; RTX-161 6 micro M + ola 0.123 micro M, experiment block 1 (c0-c9)) was 6.432%, the percent suvival ([3]; RTX-161 6 micro M + ola 0.123 micro M, experiment block 2 (c10-c19)) was 32.777% and the percent suvival ([3]; RTX-161 6 micro M + ola 0.123 micro M, experiment block 3 (c20-c29)) was 59.0951%. It also gave a percent suvival ([3]; RTX-161 6 micro M + ola 0.37 micro M, experiment block 1 (c0-c9)) of 6.745%, a percent suvival ([3]; RTX-161 6 micro M + ola 0.37 micro M, experiment block 2 (c10-c19)) of 21.1222% and a percent suvival ([3]; RTX-161 6 micro M + ola 0.37 micro M, experiment block 3 (c20-c29)) of 41.2416%. The percent suvival ([3]; RTX-161 6 micro M + ola 1.11 micro M, experiment block 1 (c0-c9)) was 6.364%, the percent suvival ([3]; RTX-161 6 micro M + ola 1.11 micro M, experiment block 2 (c10-c19)) was 17.1679% and the percent suvival ([3]; RTX-161 6 micro M + ola 1.11 micro M, experiment block 3 (c20-c29)) was 14.1224%. For the same compound, the percent suvival ([3]; RTX-161 6 micro M, ola 0.00 micro M, experiment block 1 (c0-c9)) was 109.215%, the percent suvival ([3]; RTX-161 6 micro M, ola 0.00 micro M, experiment block 2 (c10-c19)) was 55.8784% and the percent suvival ([3]; RTX-161 6 micro M, ola 0.00 micro M, experiment block 3 (c20-c29)) was 75.1407%. For the same compound, the percent suvival ([3]; RTX-161 18 micro M + ola 0.041 micro M, experiment block 1 (c0-c9)) was 10.9588%, the percent suvival ([3]; RTX-161 18 micro M + ola 0.123 micro M, experiment block 1 (c0-c9)) was 6.3155% and the percent suvival ([3]; RTX-161 18 micro M + ola 0.37 micro M, experiment block 1 (c0-c9)) was 7.064%. For the same compound, the percent suvival ([3]; RTX-161 18 micro M + ola 1.11 micro M, experiment block 1 (c0-c9)) was 6.846%, the percent suvival ([3]; RTX-161 18 micro M, ola 0.00 micro M, experiment block 1 (c0-c9)) was 83.7737% and the “combination with Olaparib” value ([3]; clonogenic survival) was “significantly reduced cellular resistance to Olaparib”. The “combination with Olaparib” value [4] was “strongly potentiated the effects of Olaparib”, the single agent activity [4] was “little to no activity as a single agent” and the “effect in BRCA2-WT cells” value ([5]; HCT116, colony survival) was “little to no effect”. For the same compound, the “Normalized colonies, pooled Average” value ([5]; RTX-161 0.5 micro M) was 101.74%, the “Average number of colonies counted” value ([5]; RTX-161 0.5 micro M) was 118 and 67.6667 and 68.6667 and the “Normalized colonies (% normalized to control)” value ([5]; RTX-161 0.5 micro M) was 99.7183% and 107.407% and 98.0952%. For the same compound, the “Normalized colonies, pooled Average” value ([5]; RTX-161 1 micro M) was 98.8027%, the “Average number of colonies counted” value ([5]; RTX-161 1 micro M) was 114.333 and 64.6667 and 68 and the “Normalized colonies (% normalized to control)” value ([5]; RTX-161 1 micro M) was 96.6197% and 102.646% and 97.1429%. For the same compound, the “Normalized colonies, pooled Average” value ([5]; RTX-161 2 micro M) was 97.4337%, the “Average number of colonies counted” value ([5]; RTX-161 2 micro M) was 112.667 and 59.6667 and 71.6667 and the “Normalized colonies (% normalized to control)” value ([5]; RTX-161 2 micro M) was 95.2113% and 94.709% and 102.381%. The “Normalized colonies, pooled Average” value ([5]; RTX-161 4 micro M) was 97.4186%, the “Average number of colonies counted” value ([5]; RTX-161 4 micro M) was 107.667 and 62 and 72 and the “Normalized colonies (% normalized to control)” value ([5]; RTX-161 4 micro M) was 90.9859% and 98.4127% and 102.857%. For the same compound, the “Normalized colonies, pooled Average” value ([5]; RTX-161 8 micro M) was 96.7852%, the “Average number of colonies counted” value ([5]; RTX-161 8 micro M) was 104.667 and 63 and 71.3333 and the “Normalized colonies (% normalized to control)” value ([5]; RTX-161 8 micro M) was 88.4507% and 100% and 101.905%. For the same compound, the “activity against PALB2 complemented EUFA1341 cells” value [6] was “little to no activity”, the “Average (raw signal of wells)” value ([6]; RTX-161 2.5 micro M) was 1.026 and 0.9713 and 0.6573 and the “Normalized (0 micro M = 100)” value ([6]; RTX-161 2.5 micro M) was 116.435% and 111.613% and 105.551%. For the same compound, the average - blank ([6]; RTX-161 2.5 micro M) was 0.8256 and 0.7713 and 0.5073, the “Average (raw signal of wells)” value ([6]; RTX-161 5 micro M) was 1.035 and 0.9992 and the “Normalized (0 micro M = 100)” value ([6]; RTX-161 5 micro M) was 117.788% and 115.651% and 105.551%. The average - blank ([6]; RTX-161 5 micro M) was 0.8352 and 0.7992 and 0.5073, the “Average (raw signal of wells)” value ([6]; RTX-161 10 micro M) was 0.6121 and 1.137 and 1.058 and the “Normalized (0 micro M = 100)” value ([6]; RTX-161 10 micro M) was 96.1382% and 132.128% and 124.139%. For the same compound, the “survival of PALB2-mutant EUFA1341 cells” value [7] was “significant reduction in the survival”, the pIC50 ([7]; EUFA1341 cells, label beside PALB2-mut curve, read-out: IC50 clonogenic survival) was ~5.30 and the “Normalized (0 micro M = 100)” value ([7]; RTX-161 2.5 micro M, per experiment) was 67.9566% and 76.5823% and 64.8427%. The “Normalized (0 micro M = 100)” value ([7]; RTX-161 5 micro M, per experiment) was 50.4887% and 55.1827% and 45.6779% and the “Average (raw signal of wells)” value ([7]; RTX-161 10 micro M, per experiment) was 0.37 and 0.6469 and 0.6018.
